Values of other authors, collected in US20240226080A1, “Pharmaceutical Mixture Comprising Amorphous Pitolisant” (Alfred E. Tiefenbacher GmbH & Co. KG, priority 2022, published 2024).
Structures can show the parent of a compound that is named as a salt.

Experiments:
[1] = for Solubility (% w/v) Water room T: room temperature
[2] = 23° C.; listed as oxalate salt

Row | SMILES | Solubility (% w/v) pH 4.5 [1] | Solubility (% w/v) pH 7.4 [1] | Solubility (% w/v) Water room T [1] | aqueous solubility [2] [mg/mL]
1 | Clc1ccc(CCCOCCCN2CCCCC2)cc1 [Hydrogen oxalate, 1-[3-[3-(4-chlorophenyl)propoxy]propyl]-piperidine] | 1-3 % w/v | 3-10 % w/v | 1-3 % w/v | 25
2 | Clc1ccc(CCCOCCCN2CCCCC2)cc1 [Monohydrochloride, 1-[3-[3-(4-chlorophenyl)propoxy]propyl]-piperidine] | >100 % w/v | >100 % w/v | >100 % w/v | 
